pEC50: −log10 of the molar value. Where a name gives a salt, the structure may show the parent alone.

The term pEC50 denotes −log10 of the EC50, conventionally taken in molar units.

Holding throughout (type): functional, cell-based
Experiment [1] is described as follows: Antiproliferative activity against human ER-positive MCF7 cells measured after 48 hrs by MTT assay. The conditions noted are these: MCF7, 48 h.
A short description of experiment [2]: Antiproliferative activity against human MDA-MB-231 cells measured after 48 hrs by MTT assay. The conditions noted are these: MDA-MB-231, 48 h. A general note: Tetrazolium dyes change colour on reduction, which living cells bring about.
Experiment [3] can be described thus: Antiproliferative activity against human ER-triple negative MDA-MB-468 cells measured after 48 hrs by MTT assay. The conditions noted are these: MDA-MB-468, 48 h.
A short description of experiment [4]: Antiproliferative activity against human MCF7/ADR cells measured after 48 hrs by MTT assay. The settings on record: NCI/ADR-RES.
Experiment [5] is described as follows: Antiproliferative activity against human K562 cells after 72 hrs by MTT assay. The conditions noted are these: K562, 72 h.
A short description of experiment [6]: Antiproliferative activity against human […] cells after 72 hrs by MTT assay.

Consider `C=CCO[C@@H]1CCC2=C(O1)[C@@]13CO[C@@]4(OC(C)(C)O[C@@H]5[C@H]6CC[C@@H]1[C@]54C(=O)C6=C)[C@@H](O)[C@@H]3C(C)(C)C2`, for which the negative-log EC50 (pEC50) in experiment [1] was 5.68; in experiment [2] it was 5.48; in experiment [3] it was 5.36; in experiment [4] it was 5.49.

As for `C=C1C(=O)[C@@]23[C@@H]4OC(C)(C)O[C@@]25OC[C@]2(C6=C(CC[C@H](OCCCl)O6)CC(C)(C)[C@H]2[C@@H]5O)[C@@H]3CC[C@@H]14`, the negative-log EC50 (pEC50) in experiment [1] was 5.64; in experiment [2] it was 5.48; in experiment [3] it was 5.52; in experiment [4], 5.51.

Regarding `C=C1C(=O)[C@@]23[C@@H]4OC(C)(C)O[C@@]25OC[C@]2(C6=C(CC[C@H](OCC(C)C)O6)CC(C)(C)[C@H]2[C@@H]5O)[C@@H]3CC[C@@H]14`, the pEC50 in experiment [1] is 5.66; in experiment [2], 5.74; in experiment [3] it was 5.59; in experiment [4] it was 5.36.

`C=C1C(=O)[C@@]23[C@@H]4OC(C)(C)O[C@@]25OC[C@]2(C6=C(CC[C@H](OCCCC)O6)CC(C)(C)[C@H]2[C@@H]5O)[C@@H]3CC[C@@H]14`: the negative logarithm of the EC50 (pEC50) in experiment [1] is 5.62; in experiment [2], 5.66; in experiment [3], 5.52; in experiment [4], 5.42.

In the case of `C=C1C(=O)[C@@]23[C@@H]4OC(C)(C)O[C@@]25OC[C@]2(C6=C(CC[C@@H](OCC)O6)CC(C)(C)[C@H]2[C@@H]5O)[C@@H]3CC[C@@H]14`, the pEC50 was 6.36 in experiment [1], 6.27 in experiment [2], 6.28 in experiment [3] and 5.80 in experiment [4].

For `C=C1C(=O)[C@@]23[C@@H]4OC(C)(C)O[C@@]25OC[C@]2(C6=C(CC[C@H](OCC)O6)CC(C)(C)[C@H]2[C@@H]5O)[C@@H]3CC[C@@H]14`, the pEC50 in experiment [1] was 5.46; in experiment [2], 5.21; in experiment [3], 5.27; in experiment [4], 5.33.

For the compound `C=C1C(=O)[C@]23[C@H](OC(=O)c4ccccc4C(=O)OCCCOc4no[n+]([O-])c4S(=O)(=O)c4ccccc4)[C@H]1CC[C@H]2[C@@]12CO[C@@]3(O)[C@@H](O)[C@@H]1C(C)(C)CC[C@@H]2O`, the negative logarithm of the EC50 (pEC50) in experiment [5] was 5.74; in experiment [6], 6.07.

For `C=CCO[C@H]1CCC2=C(O1)[C@@]13CO[C@@]4(OC(C)(C)O[C@@H]5[C@H]6CC[C@@H]1[C@]54C(=O)C6=C)[C@@H](O)[C@@H]3C(C)(C)C2`, the negative logarithm of the EC50 (pEC50) in experiment [1] was 5.37; in experiment [2], 5.15; in experiment [3], 5.31; in experiment [4], 5.37.

Take `C=C1C(=O)[C@@]23[C@@H]4OC(C)(C)O[C@@]25OC[C@]2(C6=C(CC[C@@H](OCCCl)O6)CC(C)(C)[C@H]2[C@@H]5O)[C@@H]3CC[C@@H]14`: the pEC50 in experiment [1] was 5.17; in experiment [2], 5.14; in experiment [3], 5.14; in experiment [4], 5.06.

For the compound `C=C1C(=O)[C@@]23[C@@H]4OC(C)(C)O[C@@]25OC[C@]2(C6=C(CC[C@@H](OCC(C)C)O6)CC(C)(C)[C@H]2[C@@H]5O)[C@@H]3CC[C@@H]14`, the pEC50 in experiment [1] was 5.24; in experiment [2] it was 5.09; in experiment [3] it was 5.15; in experiment [4], 4.99.

On to `C=C1C(=O)[C@@]23[C@@H]4OC(C)(C)O[C@@]25OC[C@]2(C6=C(CC[C@@H](OCCCC)O6)CC(C)(C)[C@H]2[C@@H]5O)[C@@H]3CC[C@@H]14`, for which the pEC50 in experiment [1] is 5.62; in experiment [2], 5.43; in experiment [3], 5.24; in experiment [4], 5.17.

In the case of `COc1cccc2c1C(=O)c1c(O)c3c(c(O)c1C2=O)C[C@@](O)(C(=O)CO)C[C@@H]3O[C@H]1C[C@H](N)[C@H](O)[C@H](C)O1` [DOXORUBICIN HYDROCHLORIDE], the pEC50 is 6.15 in experiment [1], 5.64 in experiment [2], 6.15 in experiment [3] and less than 5.00 in experiment [4].
